Patent US20240109900A1, “AZABICYCLIC SHP2 INHIBITORS” (IRBM S.P.A., priority 2021, published 2024)
pIC50: −log10 of the molar value. Like-named read-outs stand apart in the source and are kept apart here.

Legend:
[1] = system: ERK phosphorylation in KYSE-520 cells; assay: Phospho-ERK cellular assay; assay type: cell-based; conditions: Homo sapiens, read-out: PERK IC50
How it was run: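 TR-FRET read-out of ERK1/2 Thr202/Tyr204 phosphorylation was taken after overnight antibody incubation at room temperature. Before that, KYSE-520 cells were treated 2 h at 37 °C with compound dilutions and lysed 30 min. Percent inhibition relative to vehicle and cell-free wells was fitted four-parametrically to give IC50.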

[2] = biological target: SHP-2 enzyme (Met1-Leu525) (Homo sapiens (Human), UniProt Q06124); assay: SHP2 inhibition enzymatic assay; assay type: biochemical; conditions: 0.5 nM SHP-2 activated by 500 nM IRS1 peptide, 75 μM DiFMUP substrate; read-out: SHP2wt-IC50
How it was run: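 Compounds were preincubated 30 min with 0.5 nM SHP-2 (Met1-Leu525) plus 500 nM IRS1 activating peptide (pH 7.2 HEPES, 5 mM DTT), then 75 μM DiFMUP substrate reacted 30 min at room temperature. After bpV quench, DiFMUP fluorescence gave % inhibition; four-parameter logistic fit yielded IC50.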

[3] = KYSE-520, 2 h, KYSE-520 cells, 2 h at 37° C., phospho-ERK1/2 (Thr202/Tyr204) TR-FRET

SHP-2 enzyme (Met1-Leu525), sequence (Q06124 1-525): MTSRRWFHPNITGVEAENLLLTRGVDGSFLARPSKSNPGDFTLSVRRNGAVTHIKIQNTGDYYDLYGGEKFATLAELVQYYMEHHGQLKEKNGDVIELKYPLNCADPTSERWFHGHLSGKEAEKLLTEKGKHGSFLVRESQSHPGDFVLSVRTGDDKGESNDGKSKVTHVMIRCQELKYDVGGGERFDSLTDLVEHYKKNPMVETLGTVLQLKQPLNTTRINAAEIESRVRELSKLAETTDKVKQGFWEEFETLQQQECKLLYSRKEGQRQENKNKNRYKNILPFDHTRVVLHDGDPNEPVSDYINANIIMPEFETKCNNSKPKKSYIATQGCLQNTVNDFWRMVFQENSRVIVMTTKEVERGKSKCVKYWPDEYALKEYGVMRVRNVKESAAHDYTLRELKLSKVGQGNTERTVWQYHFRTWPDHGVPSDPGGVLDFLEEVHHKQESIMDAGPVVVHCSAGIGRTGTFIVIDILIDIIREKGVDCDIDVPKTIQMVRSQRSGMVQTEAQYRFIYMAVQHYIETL

Row | Compound | pIC50 [1, 3] | pIC50 [2] | pIC50 ([1]; KYSE-520, 2 h) | pIC50 ([1]; KYSE-520 cells, 2 h at 37° C., phospho-ERK1/2 (Thr202/Tyr204) TR-FRET)
1 | NCC1(c2ccsc2)C2CCN(c3cnc4c(-c5ccnc(C(F)(F)F)c5)n[nH]c4n3)CC21 (stereo not drawn) [Example 95, (7-(thiophen-3-yl)-3-(3-(2-(trifluoromethyl)pyridin-4-yl)-1H-pyrazolo[3,4-b]pyrazin-6-yl)-3-azabicyclo[4.1.0]heptan-7-yl)methanamine] | 5.30 to 6.00 | > 6.30 | – | –
2 | NCC1(c2ccsc2)C2CCN(c3cnc4c(-c5cccnc5C(F)(F)F)n[nH]c4n3)CC21 (stereo not drawn) [Example 96, (7-(thiophen-3-yl)-3-(3-(2-(trifluoromethyl)pyridin-3-yl)-1H-pyrazolo[3,4-b]pyrazin-6-yl)-3-azabicyclo[4.1.0]heptan-7-yl)methanamine] | > 6.00 | > 6.30 | – | –
3 | Cn1nccc1C1(CN)C2CCN(c3cnc4c(-c5cccc(Cl)c5Cl)n[nH]c4n3)CC21 (stereo not drawn) [Example 97, (3-(3-(2,3-dichlorophenyl)-1H-pyrazolo[3,4-b]pyrazin-6-yl)-7-(1-methyl-1H-pyrazol-5-yl)-3-azabicyclo[4.1.0]heptan-7-yl)methanamine] | > 6.00 | > 6.30 | – | –
4 | NCC1C2CCN(c3cnc4c(-c5cccc(Cl)c5Cl)n[nH]c4n3)CC12 (stereo not drawn) [Example 100, (3-(3-(2,3-dichlorophenyl)-1H-pyrazolo[3,4-b]pyrazin-6-yl)-3-azabicyclo[4.1.0]heptan-7-yl)methanamine] | > 6.00 | > 6.30 | – | –
5 | Cc1csc(C2(CN)C3CCN(c4cnc5c(-c6ccc(OS(=O)(=O)F)c7ccccc67)n[nH]c5n4)CC32)n1 (stereo not drawn) [Example 103, 4-(6-(7-(aminomethyl)-7-(4-methylthiazol-2-yl)-3-azabicyclo[4.1.0]heptan-3-yl)-1H-pyrazolo[3,4-b]pyrazin-3-yl)naphthalen-1-yl sulfurofluoridate] | – | > 6.30 | > 6.00 | –
6 | NC[C@]1(c2ccccc2)[C@@H]2CN(c3cnc(Sc4cccnc4C(F)(F)F)c(N)n3)C[C@@H]21 [Example 104, 6-((1R,5S,6s)-6-(aminomethyl)-6-phenyl-3-azabicyclo[3.1.0]hexan-3-yl)-3-((2-(trifluoromethyl)pyridin-3-yl)thio)pyrazin-2-amine] | – | > 6.30 | – | < 5.30
7 | Cc1cc([C@@]2(CN)[C@@H]3CCN(c4cnc5c(-c6ccc7nc(C)sc7c6Cl)n[nH]c5n4)C[C@@H]32)no1 [Example 107, ((1S,6R,7S)-3-(3-(7-chloro-2-methylbenzo[d]thiazol-6-yl)-1H-pyrazolo[3,4-b]pyrazin-6-yl)-7-(5-methylisoxazol-3-yl)-3-azabicyclo[4.1.0]heptan-7-yl)methanamine] | > 6.00 | > 6.30 | – | –
8 | Cc1cc([C@@]2(CN)[C@@H]3CCN(c4cnc5c(-c6ccc7nn(C)c(C)c7c6Cl)n[nH]c5n4)C[C@@H]32)no1 [Example 108, ((1S,6R,7S)-3-(3-(4-chloro-2,3-dimethyl-2H-indazol-5-yl)-1H-pyrazolo[3,4-b]pyrazin-6-yl)-7-(5-methylisoxazol-3-yl)-3-azabicyclo[4.1.0]heptan-7-yl)methanamine] | > 6.00 | > 6.30 | – | –
9 | COc1c2c(Cl)c(-c3n[nH]c4nc(N5CC[C@@H]6[C@H](C5)[C@@]6(CN)c5cc(C)on5)cnc34)ccc2nn1C [Example 109, ((1S,6R,7S)-3-(3-(4-chloro-3-methoxy-2-methyl-2H-indazol-5-yl)-1H-pyrazolo[3,4-b]pyrazin-6-yl)-7-(5-methylisoxazol-3-yl)-3-azabicyclo[4.1.0]heptan-7-yl)methanamine] | > 6.00 | > 6.30 | – | –
10 | Cc1cc([C@@]2(CN)[C@@H]3CCN(c4cnc5c(-c6ccnc7c(F)cccc67)n[nH]c5n4)C[C@@H]32)no1 [Example 114, ((1S,6R,7S)-3-(3-(8-fluoroquinolin-4-yl)-1H-pyrazolo[3,4-b]pyrazin-6-yl)-7-(5-methylisoxazol-3-yl)-3-azabicyclo[4.1.0]heptan-7-yl)methanamine] | > 6.00 | > 6.30 | – | –
11 | COc1ccc2ncccc2c1-c1n[nH]c2nc(N3CC[C@@H]4[C@H](C3)[C@@]4(CN)c3cc(C)on3)cnc12 [Example 115, ((1S,6R,7S)-3-(3-(6-methoxyquinolin-5-yl)-1H-pyrazolo[3,4-b]pyrazin-6-yl)-7-(5-methylisoxazol-3-yl)-3-azabicyclo[4.1.0]heptan-7-yl)methanamine] | > 6.00 | 5.52 to 6.30 | – | –

Further lines, with some results ahead:

Row | pIC50 [1, 3] | pIC50 [2] | Compound | pIC50 ([1]; KYSE-520, 2 h) | pIC50 ([1]; KYSE-520 cells, 2 h at 37° C., phospho-ERK1/2 (Thr202/Tyr204) TR-FRET)
12 | > 6.00 | > 6.30 | Cc1csc(C2(CN)C3CCN(c4cnc5c(-c6cccc7c6OCO7)n[nH]c5n4)CC32)n1 (stereo not drawn) [Example 91, (3-(3-(Benzo[d][1,3]dioxol-4-yl)-1H-pyrazolo[3,4-b]pyrazin-6-yl)-7-(4-methylthiazol-2-yl)-3-azabicyclo[4.1.0]heptan-7-yl)methanamine] | – | –
13 | > 6.00 | > 6.30 | Cc1csc(C2(CN)C3CCN(c4cnc5c(-c6ccc(F)c7ncccc67)n[nH]c5n4)CC32)n1 (stereo not drawn) [Example 92, (3-(3-(8-fluoroquinolin-5-yl)-1H-pyrazolo[3,4-b]pyrazin-6-yl)-7-(4-methylthiazol-2-yl)-3-azabicyclo[4.1.0]heptan-7-yl)methanamine] | – | –
14 | > 6.00 | > 6.30 | Cc1csc(C2(CN)C3CCN(c4cnc5c(Sc6ccnc(N)c6Cl)n[nH]c5n4)CC32)n1 (stereo not drawn) [Example 93, 4-((6-(7-(aminomethyl)-7-(4-methylthiazol-2-yl)-3-azabicyclo[4.1.0]heptan-3-yl)-1H-pyrazolo[3,4-b]pyrazin-3-yl)thio)-3-chloropyridin-2-amine] | – | –
15 | > 6.00 | > 6.30 | NCC1(c2ccsc2)C2CCN(c3cnc4c(-c5cccc(Cl)c5Cl)n[nH]c4n3)CC21 (stereo not drawn) [Example 94, (3-(3-(2,3-dichlorophenyl)-1H-pyrazolo[3,4-b]pyrazin-6-yl)-7-(thiophen-3-yl)-3-azabicyclo [4.1.0]heptan-7-yl)methanamine] | – | –
16 | > 6.00 | > 6.30 | Cn1ccc(C2(CN)C3CCN(c4cnc5c(-c6cccc(Cl)c6Cl)n[nH]c5n4)CC32)n1 (stereo not drawn) [Example 98, (3-(3-(2,3-dichlorophenyl)-1H-pyrazolo[3,4-b]pyrazin-6-yl)-7-(1-methyl-1H-pyrazol-3-yl)-3-azabicyclo[4.1.0]heptan-7-yl)methanamine] | – | –
17 | > 6.00 | > 6.30 | NCC1(c2ccon2)C2CCN(c3cnc4c(-c5cccc(Cl)c5Cl)n[nH]c4n3)CC21 (stereo not drawn) [Example 99, (3-(3-(2,3-dichlorophenyl)-1H-pyrazolo[3,4-b]pyrazin-6-yl)-7-(isoxazol-3-yl)-3-azabicyclo[4.1.0]heptan-7-yl)methanamine] | – | –
18 | > 6.00 | > 6.30 | Cc1csc(C2(CN)C3CCN(c4nc5[nH]nc(-c6cccc7ncccc67)c5nc4CO)CC32)n1 (stereo not drawn) [Example 101, (6-(7-(aminomethyl)-7-(4-methylthiazol-2-yl)-3-azabicyclo[4.1.0]heptan-3-yl)-3-(quinolin-5-yl)-1H-pyrazolo[3,4-b]pyrazin-5-yl)methanol] | – | –
19 | > 6.00 | > 6.30 | Cc1csc(C2(CN)C3CCN(c4nc5[nH]nc(-c6cccc(Cl)c6Cl)c5nc4CO)CC32)n1 (stereo not drawn) [Example 102, (6-(7-(aminomethyl)-7-(4-methylthiazol-2-yl)-3-azabicyclo[4.1.0]heptan-3-yl)-3-(2,3-dichlorophenyl)-1H-pyrazolo[3,4-b]pyrazin-5-yl)methanol] | – | –
20 | > 6.00 | > 6.30 | NC[C@]1(c2ccccc2F)[C@@H]2CCN(c3cnc4c(-c5ccnc(N)c5Cl)n[nH]c4n3)C[C@@H]21 [Example 105, 4-(6-((1S,6R,7R)-7-(aminomethyl)-7-(2-fluorophenyl)-3-azabicyclo[4.1.0]heptan-3-yl)-1H-pyrazolo[3,4-b]pyrazin-3-yl)-3-chloropyridin-2-amine] | – | –
21 | > 6.00 | > 6.30 | Cc1c(-c2n[nH]c3nc(N4CC[C@@H]5[C@H](C4)[C@@]5(CN)c4c(F)cccc4F)cnc23)ccc2nn(C)cc12 [Example 106, ((1S,6R,7R)-7-(2,6-difluorophenyl)-3-(3-(2,4-dimethyl-2H-indazol-5-yl)-1H-pyrazolo[3,4-b]pyrazin-6-yl)-3-azabicyclo[4.1.0]heptan-7-yl)methanamine] | – | –
22 | > 6.00 | > 6.30 | Cc1cc(C2(CN)C3CCN(c4nc5[nH]nc(-c6ccc7nc(C)sc7c6Cl)c5nc4C)CC32)no1 (stereo not drawn) [Example 110, (3-(3-(7-chloro-2-methylbenzo[d]thiazol-6-yl)-5-methyl-1H-pyrazolo[3,4-b]pyrazin-6-yl)-7-(5-methylisoxazol-3-yl)-3-azabicyclo[4.1.0]heptan-7-yl)methanamine] | – | –
23 | > 6.00 | > 6.30 | COc1cnc2ccc(-c3n[nH]c4nc(N5CC[C@@H]6[C@H](C5)[C@@]6(CN)c5cc(C)on5)cnc34)c(Cl)c2n1 [Example 112, ((1S,6R,7S)-3-(3-(5-chloro-3-methoxyquinoxalin-6-yl)-1H-pyrazolo[3,4-b]pyrazin-6-yl)-7-(5-methylisoxazol-3-yl)-3-azabicyclo[4.1.0]heptan-7-yl)methanamine] | – | –
24 | > 6.00 | > 6.30 | Cc1cc([C@@]2(CN)[C@@H]3CCN(c4cnc5c(-c6csc7ncccc67)n[nH]c5n4)C[C@@H]32)no1 [Example 113, ((1S,6R,7S)-7-(5-methylisoxazol-3-yl)-3-(3-(thieno[2,3-b]pyridin-3-yl)-1H-pyrazolo[3,4-b]pyrazin-6-yl)-3-azabicyclo[4.1.0]heptan-7-yl)methanamine] | – | –
